Experimental data: patent US12122787B2, “Fused pyridone compound, and preparation method therefor and use thereof” (SHANGHAI JEMINCARE PHARMACEUTICALS CO., LTD, priority 2019, dated 2024)
Like-named read-outs stand apart in the source and are kept apart here.

How the values were obtained:
Format in all cases: cell-based
[1] = test system: MIA PaCa2 cells expressing KRAS-G12C; test: Growth inhibition of tumor cell line expressing KRAS-G12C (Cell Titer Glo), MIA PaCa2; settings: MIA-Paca2, 72 hours
Description: (§1) The ability of the compounds of the present disclosure to inhibit the growth of cells expressing KRAS-G12C was evaluated by measuring the cell viability and calculating the GI50 values.
(§2) The tumor cell line NCI-H358 (ATCC catalogue number CRL-5807) expressing KRAS-G12C was cultured in RPMI medium supplemented with 10% fetal bovine serum and penicillin/streptomycin, and the tumor cell line MIA PaCa2 (ATCC CRL-1420) expressing KRAS-G12C was cultured in DMEM medium supplemented with 10% fetal bovine serum, 2.5% horse serum, and penicillin/streptomycin.
(§3) Cells NCI-H358 and MIA-Paca2 were inoculated into black transparent bottom 384-well plate (PerkinElmer catalogue number 6007460) with cell density of 1000 and 800 respectively, and the cells were allowed to adhere to the wall overnight (8-12 hours). After the cells adhered to the wall, the experimental group was added with the compound of the present disclosure diluted 5 times the concentration of the working solution (final concentration containing 0.1% dimethyl sulfoxide, i.e. DMSO); the control group was added with the same dilution as the experimental group (final concentration containing 0.1% DMSO). After 72 hours, Cell Titer Glo reagent (Promega catalogue number G7572) was used to detect ATP content according to the instruction method to determine the amount of cell proliferation. The brief operation steps were as follows: the cell plate was taken out and kept at normal temperature for equilibrium for 30 minutes; Cell Titer Glo reagent with the same volume as the culture was added; the culture plate was placed on a shaker for shaking and cracking for 2 minutes; the culture plate was left to stand at room temperature for 10 minutes; then the light signal value was read by microplate reader EnVision (PerkinElmer).
(§4) Data from all experimental groups were used to calculate the respective percent inhibition using the DMSO group, and the GI50 was calculated using the data processing software GraphPad to analyze the inhibition rates produced by the 9 compound dose concentrations diluted at ⅓-fold ratio.

[2] = test system: NCI-H358 cells expressing KRAS-G12C; test: Growth inhibition of tumor cell line expressing KRAS-G12C (Cell Titer Glo), NCI-H358
Description: as §1, §2, §3, §4

[3] = test system: phosphorylated ERK (Thr202/Tyr204) in NCI-H358 cells expressing mutant RAS(G12C); test: Inhibition of RAS-mediated signal transduction: phosphorylated ERK ELISA in NCI-H358 cells; settings: NCI-H358 cells, 2 hours of treatment, pERK normalized by Janus Green B, read-out: p-ERK IC50 (NCI H358)
Description: The cells were treated with or without the compound of the present disclosure (dimethyl sulfoxide, DMSO), and the final concentration of DMSO was guaranteed to be 0.5%. After 2 hours of treatment, the medium was removed and 4% paraformaldehyde (Beyotime catalog number E672002-0100) was added and left to stand for 20 minutes. Cells were washed with PBS after fixation and incubated with precooled methanol for 10 min to permeabilize the cell membrane.
The level of phosphorylated ERK was detected using an enzyme linked immunosorbent assay (ELISA) method. […] The plates were washed 5 times with PBS containing 0.05% Tween 20. […] The reaction was stopped by adding 1 mol/L H2SO4, and the OD value was read at 450 nm by EnVision (PerkinElmer).
The total number of cells per well was detected by Janus Green B staining method. After detecting the level of phosphorylated ERK, the 96-well plate was washed with PBS until colorless, and 0.1% Janus Green B (Abcam catalogue number ab111622) was added to incubate for 10 minutes. After the 96-well plate was washed with double distilled water, 0.1 mol/L HCl was added, then the mixture was shaked and incubated for 10 minutes. The OD value was read at 595 nm by EnVision (PerkinElmer).
The signal of pERK (Thr202/Tyr204) was normalized by the signal value of Janus Green B, and the inhibition percentage after drug treatment relative to DMSO reference was calculated. The percentage values were fitted by a four-parameter dose-response curve and generated IC50 values.

SMILES | GI50 [1] [nM] | GI50 ([2]; NCI-H358, 72 hours) [nM] | GI50 ([1]; Homo sapiens, MIA PaCa-2, 72 h) [nM] | GI50 ([2]; Homo sapiens, NCI-H358, 72 h) [nM] | IC50 [3] [nM] | IC50 ([3]; Homo sapiens, NCI-H358, 2 h) [nM]
C=CC(=O)N1CC2C(=O)N(CCN(C)C)c3c(c4cc(F)c(-c5c(O)cccc5F)c(F)c4n(-c4c(C)ccnc4C(C)C)c3=O)N2CC1C (stereo not drawn) [Compound 24B] | 112 | 68 |  |  | 75 | 
C=CC(=O)N1C[C@@H]2C(=O)N(C)c3c(c4cc(Cl)c(-c5c(O)cccc5F)c(F)c4n(-c4c(C)ccnc4C(C)C)c3=O)N2C[C@H]1C [Compound 23A-2] | 14 | 3 |  |  | 3 | 
C=CC(=O)N1C[C@@H]2C(=O)N(C)c3c(c4cc(F)c(-c5c(C)ccc6[nH]nc(N)c56)c(F)c4n(-c4c(C)ccnc4C(C)C)c3=O)N2C[C@H]1C [Compound 28A] |  |  | 9 | 7 |  | 6
C=CC(=O)N1C[C@@H]2COc3c(c4cc(Cl)c(-c5c(O)cccc5F)c(F)c4n(-c4c(C)ccnc4C(C)C)c3=O)N2C[C@H]1C (atropisomer, axis not shown) [Compound 18B] | 468 | 138 |  |  | 151 | 
C=CC(=O)N1C[C@@H]2CN(C)c3c(c4cc(Cl)c(-c5c(O)cccc5F)nc4n(-c4c(C)ccnc4C(C)C)c3=O)N2C[C@H]1C [Compound 8] |  |  | 37 | 22 |  | 24
C=CC(=O)N1C[C@@H]2CN(CCCO)c3c(c4cc(F)c(-c5c(O)cccc5F)c(F)c4n(-c4c(C)ccnc4C(C)C)c3=O)N2C[C@H]1C [Compound 35A] |  | 53 | 2140 |  | 68 | 
C=CC(=O)N1C[C@@H]2COc3c(c4cc(Cl)c(-c5c(O)cccc5F)c(F)c4n(-c4c(C)ccnc4C(C)C)c3=O)N2C[C@H]1C [Compound 18B-1] | 66 | 21 |  |  | 36 | 
C=CC(=O)N1C[C@@H]2CN(C)c3c(c4cc(F)c(-c5c(O)cccc5F)c(F)c4n(-c4c(C)ccnc4C(C)C)c3=O)N2C[C@H]1C (atropisomer, axis not shown) [Compound 16A-1] |  |  | 55 | 12 | 11 | 
C=CC(=O)N1C[C@@H]2C(=O)N(C)c3c(c4cc(Cl)c(-c5ccc(F)c6nc(N)sc56)nc4n(-c4c(C)ccnc4C(C)C)c3=O)N2C[C@H]1C (single isomer, unassigned) [Compound 56A] | 448 | 223 |  |  | 183 | 

Second part, led by results:

GI50 [1] [nM] | GI50 ([2]; NCI-H358, 72 hours) [nM] | GI50 ([1]; Homo sapiens, MIA PaCa-2, 72 h) [nM] | GI50 ([2]; Homo sapiens, NCI-H358, 72 h) [nM] | SMILES | IC50 [3] [nM] | IC50 ([3]; Homo sapiens, NCI-H358, 2 h) [nM]
 |  | 604 | 442 | C=CC(=O)N1C[C@@H]2C(=O)N(C)c3c(c4cc(F)c(-c5c(C)ccc6[nH]ncc56)c(F)c4n(-c4c(C)ccnc4C(C)C)c3=O)N2C[C@H]1C [Compound 32A] |  | 274
 |  | 4 | 2 | C=CC(=O)N1C[C@@H]2C(=O)N(C)c3c(c4cc(Cl)c(-c5c(O)cccc5F)c(F)c4n(-c4c(CC)ccnc4C(C)C)c3=O)N2C[C@H]1C [Compound 53A-1] |  | 3
146 | 74 |  |  | C=CC(=O)N1C[C@@H]2CN(C)c3c(c4cc(F)c(-c5c(O)cccc5F)c(F)c4n(-c4c(C)ccnc4C(C)C)c3=O)N2C[C@H]1C (single isomer, unassigned) [Compound 16A-2] | 84 | 
 |  | 211 | 20 | C=CC(=O)N1C[C@@H]2CN(C)c3c(c4cc(F)c(-c5c(O)cccc5F)c(F)c4n(-c4c(C)ccnc4C(C)C)c3=O)N2C[C@H]1C (single isomer, unassigned) [Compound 16A] | 17 | 
 |  | 67 | 44 | C=CC(=O)N1C[C@@H]2C(=O)N(CCN(C)C)c3c(c4cc(Cl)c(-c5c(O)cccc5F)nc4n(-c4c(C)ccnc4C(C)C)c3=O)N2C[C@H]1C [Compound 29A] |  | 124
1 | 2 |  |  | C=CC(=O)N1C[C@@H]2C(=O)N(CCN(C)C)c3c(c4cc(Cl)c(-c5c(O)cccc5F)c(F)c4n(-c4c(C)ccnc4C(C)C)c3=O)N2C[C@H]1C (single isomer, unassigned) [Compound 26C] | 2 | 
 |  | 1570 | 424 | C=CC(=O)N1C[C@@H]2CN(CC(N)=O)c3c(c4cc(F)c(-c5c(O)cccc5F)c(F)c4n(-c4c(C)ccnc4C(C)C)c3=O)N2C[C@H]1C [Compound 44A] |  | 580
